Test results reported in ChEMBL document CHEMBL1130991, “Synthesis and antibacterial activity of [6,5,5] and [6,6,5] tricyclic fused oxazolidinones” (Bioorg Med Chem Lett, 1998).
≈ marks a conversion by molar mass, not a printed value.

Experiments:
Bacteroides fragilis [1] = test: Antibacterial activity against Bacteroides fragilis UC12199; format: functional
Enterococcus faecalis = test: Antibacterial activity against Enterococcus faecalis UC9217; format: functional
Mus musculus [2] = test: (§1) Effective dose required to inhibit Staphylococcus aureus UC9213 in mice subjected to a lethal systemic infection (when administered orally); format: functional; details: po
Staphylococcus aureus [3] = test: Antibacterial activity against Staphylococcus aureus UC12673; format: functional
Staphylococcus aureus [4] = test: Antibacterial activity against Staphylococcus aureus UC9213; format: functional
[5] = tested on: Staphylococcus epidermidis; test: Antibacterial activity against Staphylococcus epidermidis UC30031UC; format: functional
Streptococcus pneumoniae = test: Antibacterial activity against Streptococcus pneumoniae UC9912; format: functional
Staphylococcus aureus [6] = test: as §1; format: functional; details: po
Staphylococcus aureus [7] = test: Effective dose required to inhibit Staphylococcus aureus UC9271 in mice subjected to a lethal systemic infection (when administered orally); format: functional; details: po
Mus musculus [8] = test: as §1; format: functional, organism-based
Bacteroides fragilis [9] = test: Compound was evaluated for antibacterial activity against Bacteroides fragilis UC12199 UC (Upjohn Culture); format: functional

SMILES | MIC (Bacteroides fragilis [1]) [µg/mL] | MIC (Enterococcus faecalis) [µg/mL] | ED50 (Mus musculus [2]) [mg/kg] | MIC (Staphylococcus aureus [3]) [µg/mL] | MIC (Staphylococcus aureus [4]) [µg/mL] | MIC [5] [µg/mL] | MIC (Streptococcus pneumoniae) [µg/mL] | ED50 (Staphylococcus aureus [6]) [mg/kg] | ED50 (Staphylococcus aureus [7]) [mg/kg] | EC50 (Mus musculus [8]) [mg/kg] | MIC (Bacteroides fragilis [9]) [µg/mL]
CC(=O)NC[C@@H]1OC(=O)N2c3ccc(-c4cccnc4)cc3C[C@@H]12.Cl | 4 | 2 | 6 | 2 | 2 | 1 | 0.5 | – | – | – | –
CC(=O)NCC1OC(=O)N2c3ccc(C(C)=O)cc3CC12 (single isomer, unassigned; (+)) | 4 (≈ 13.9 µM) | 4 (≈ 13.9 µM) | – | 4 (≈ 13.9 µM) | 4 (≈ 13.9 µM) | 2 (≈ 6.94 µM) | 4 (≈ 13.9 µM) | – | – | – | –
CC(=O)NC[C@@H]1OC(=O)N2c3ccc(S(=O)(=O)NCc4ccccc4)cc3C[C@@H]12 | > 32 | > 64 | – | > 64 | > 64 | > 64 | > 64 | – | – | – | –
CC(=O)NC[C@@H]1OC(=O)N2c3ccc(-c4cncnc4)cc3C[C@@H]12 | 8 (≈ 24.7 µM) | 4 (≈ 12.3 µM) | 11.4 | 4 (≈ 12.3 µM) | 8 (≈ 24.7 µM) | 4 (≈ 12.3 µM) | – | – | – | – | –
CC(=O)NC[C@H]1CN(c2ccc(C(C)=O)cc2)C(=O)O1 (racemic) [DUP-721] | 8 (≈ 29 µM) | 8 (≈ 29 µM) | – | 4 (≈ 14.5 µM) | 2 (≈ 7.24 µM) | 4 (≈ 14.5 µM) | 2 (≈ 7.24 µM) | 9.4 | 18.1 | – | –
CC(=O)NC[C@@H]1OC(=O)N2c3ccc(-c4cccnc4)cc3C[C@@H]12 | 2 (≈ 6.19 µM) | 2 (≈ 6.19 µM) | 9.4 | 2 (≈ 6.19 µM) | 4 (≈ 12.4 µM) | 2 (≈ 6.19 µM) | – | – | 4.4 | – | –
CC(=O)NC[C@@H]1OC(=O)N2c3ccc(-c4ccccc4)cc3C[C@@H]12 | 32 (≈ 99.3 µM) | 4 (≈ 12.4 µM) | – | – | – | 2 (≈ 6.2 µM) | – | – | – | > 25 | –
CC(=O)NC[C@@H]1OC(=O)N2c3ccccc3CC[C@H]12 | > 32 | > 64 | – | > 64 | > 64 | > 64 | > 64 | – | – | – | –
CC(=O)NC[C@@H]1OC(=O)N2c3ccc(C(C)=O)cc3C[C@@H]12 | – | 16 (≈ 55.5 µM) | 39.5 | – | 8 (≈ 27.7 µM) | 8 (≈ 27.7 µM) | – | – | – | – | –
CC(=O)NC[C@@H]1OC(=O)N2c3ccccc3CC[C@@H]12 | > 32 | > 64 | – | > 64 | > 64 | > 64 | > 64 | – | – | – | –
CC(=O)NC[C@@H]1OC(=O)N2c3ccc(S(=O)(=O)Nc4ccccc4)cc3C[C@@H]12 | > 32 | > 64 | – | > 64 | > 64 | > 64 | > 64 | – | – | – | –
CC(=O)NC[C@H]1CN(c2ccc(N3CCOCC3)c(F)c2)C(=O)O1 [LINEZOLID] | 4 (≈ 11.9 µM) | – | 2 | – | – | 1 (≈ 2.96 µM) | – | – | – | – | –
CC(=O)NC[C@@H]1OC(=O)N2c3ccc(S(=O)(=O)N4CCCCC4)cc3C[C@@H]12 | > 32 | > 64 | – | > 64 | > 64 | > 64 | > 64 | – | – | – | –
CC(=O)NC[C@@H]1OC(=O)N2c3ccccc3C[C@H]12 | – | > 32 | – | > 32 | > 32 | > 32 | > 32 | – | – | – | > 32
CN[C@H](CC(C)C)C(=O)N[C@H]1C(=O)N[C@@H](CC(N)=O)C(=O)N[C@H]2C(=O)N[C@H]3C(=O)N[C@H](C(=O)N[C@H](C(=O)O)c4cc(O)cc(O)c4-c4cc3ccc4O)[C@H](O)c3ccc(c(Cl)c3)Oc3cc2cc(c3O[C@@H]2O[C@H](CO)[C@@H](O)[C@H](O)[C@H]2O[C@H]2C[C@](C)(N)[C@H](O)[C@H](C)O2)Oc2ccc(cc2Cl)[C@H]1O [VANCOMYCIN] | > 16 | 4 (≈ 2.76 µM) | 1.1 | – | – | 0.5 (≈ 0.345 µM) | 0.5 (≈ 0.345 µM) | – | – | – | –
CC(=O)NC[C@@H]1OC(=O)N2c3ccc(C(C)=O)cc3CC[C@@H]12 | > 16 | > 16 | – | > 16 | > 16 | > 16 | > 16 | – | – | – | –
